The text below walks through data of patent US7799913B2, “Carbonylbenzoxazine compounds for enhancing glutamatergic synaptic responses” (Cortex Pharmaceuticals, Inc., priority 2001, dated 2010).

Series [1] has as its system AMPA receptor. The experiment in a line: steady-state current induced by glutamate in cortical neurons in primary culture. In kind it is cell-based, rat. To be noted: 300 μM glutamate on cultured neurons. The method, then: (§1) The physiological effects of invention compounds were tested in vitro on primary cultures of rat cortical neurons as described by Hamill, O P, et al. in Pflügers Arch 391: 85-100 (1981) or on slices of rat hippocampus according to the following procedure. Excitatory responses (field EPSPs) were measured in hippocampal slices, which were maintained in a recording chamber continuously perfused with artificial cerebrospinal fluid (ACSF). During a 15-30 minute interval, the perfusion medium was switched to one containing various concentrations of the test compounds. Responses collected immediately before and at the end of drug perfusion were superimposed in order to calculate the percent increase in EPSP amplitude.

The subject of series [2] is AMPA receptors. The experiment in a line: field EPSP amplitude in field CA1 of rat hippocampal slice. In kind it is cell-based. To be noted: rat hippocampal slice.
Excerpt: The field EPSP, (excitatory post-synaptic potential) recorded in field CA1 after stimulation of CA3 axons is known to be mediated by AMPA receptors, which are present in the synapses (Kessler et al., Brain Res. 560: 337-341 (1991)). Drugs that selectively block the receptor selectively block the field EPSP (Muller et al., Science, supra). […] These effects are mirrored in the field EPSP (see, for example, Staubli et al., Psychobiology, supra; Xiao et al., Hippocampus, supra; Staubli et al., Hippocampus 2: 4958 (1992)).
To obtain the data shown in Table I, a bipolar nichrome stimulating electrode was positioned in the dendritic layer (stratum radiatum) of the hippocampal subfield CA1 close to the border of subfield CA3, as described in Example 64. Current pulses (0.1 msec) through the stimulating electrode activate a population of the Schaffer-commissural (SC) fibers, which arise from neurons in the subdivision CA3 and terminate in synapses on the dendrites of CA1 neurons. Activation of these synapses causes them to release the transmitter glutamate. Glutamate binds to post-synaptic AMPA receptors, which then transiently open an associated ion channel and permit a sodium current to enter the postsynaptic cell. This current results in a voltage in the extracellular space (the field EPSP), which is recorded by a high impedance recording electrode positioned in the middle of the stratum radiatum of CA1.
The intensity of the stimulation current was adjusted to produce half-maximal EPSPs (typically about 1.5-2.0 mV). Paired stimulation pulses were given every 40 sec with an interpulse interval of 200 msec, as described further in Example 64.
Hippocampal slices were maintained in a recording chamber continuously perfused with artificial cerebrospinal fluid (ACSF). During 15-30 minute intervals, the perfusion medium was switched to one containing various concentrations of the test compounds. Responses collected immediately before and at the end of drug perfusion were superimposed in order to calculate the percent increase in EPSP amplitude.
as §1
To conduct these tests, the hippocampus was removed from anesthetized, 2 month old Sprague-Dawley rats and in vitro slices (400 μm thick) were prepared and maintained in an interface chamber at 35° C. using conventional techniques [see, for example, Dunwiddie and Lynch, J. Physiol. 276: 353-367 (1978)]. The chamber was constantly perfused at 0.5 mL/min with ACSF containing (in mM): NaCl 124, KCl 3, KH2PO4 1.25, MgSO4 2.5, CaCl2 3.4, NaHCO3 26, glucose 10 and L-ascorbate 2. A bipolar nichrome stimulating electrode was positioned in the dendritic layer (stratum radiatum) of the hippocampal subfield CA1 close to the border of subfield CA3.
Current pulses (0.1 msec) through the stimulating electrode activate a population of the Schaffer-commissural (SC) fibers, which arise from neurons in the subdivision CA3 and terminate in synapses on the dendrites of CA1 neurons. Activation of these synapses causes them to release the transmitter glutamate. Glutamate binds to the post-synaptic AMPA receptors, which then transiently open an associated ion channel and permit a sodium current to enter the postsynaptic cell. […]

Consider `COC(=O)CN1COc2cc3c(cc2C1=O)OC1CCCN1C3=O` (racemic) [Example 33, (R,S)-methyl 2-(4,10-dioxo-2H,6aH-pyrrolidino[2″,1″-3′,2′]1,3-oxazino[5′,6′-4,5]benzo[e]1,3-oxazaperhydroin-3-yl)acetate], for which the melting point – broadly, the temperature, or range, at which the solid turns liquid – fell in the range of 161 to 162 °C. Regarding `O=C1c2cc3c(cc2OC2CCCN12)C(=O)N1CCOC1O3` [Example 11, (R,S), (R,S)-2H,3H,12aH,6aH-1,3-oxazolidino[2,3-b]pyrrolidino[2″,1″-2′,3′](1,3-oxazino)[5′,6′-2,1]benzo[4,5-e]1,3-oxazaperhydroine-4,10-dione], the “EC2X: concentration of modulator required to double the steady state current” value (“EC2X: concentration” for short) in series [1] was found to be 0.09 µM. Moreover, the “AMP: concentration of modulator that increases the amplitude of the fEPSP by 10%” value in series [2] is 1 µM. Take `O=C1CCCN1CCCN1COc2cc3c(cc2C1=O)OC1CCCN1C3=O` (racemic) [Example 27, (R,S)-3-[3-(2-oxopyrrolidinyl)propyl]-2H,6aH-pyrrolidino[2″,1″-3′,2′]1,3-oxazino[5′,6′-4,5]benzo[e]1,3-oxazaperhydroine-4,10-dione]: the melting point was 189 to 190 °C. For the same molecule, the “EC2X: concentration” value in series [1] came out at 1 µM. For the same molecule, the “AMP: concentration of modulator that increases the amplitude of the fEPSP by 10%” value in series [2] came out at 10 µM. In the case of `CCN1COc2cc(C(=O)C3CCCCC3)ccc2C1=O` [Example 38, 7-(cyclohexylcarbonyl)-3-ethyl-2H-benzo[e]1,3-oxazaperhydroin-4-one], in series [1], the “EC2X: concentration” value stood at 15 µM. Besides, the “AMP: concentration of modulator that increases the amplitude of the fEPSP by 10%” value in series [2] amounted to 30 µM. The molecule `CCN1COc2cc3c(cc2C1=O)OC1CCCN1C3=O` (racemic) [Example 23, (R,S)-3-ethyl-2H,6aH-pyrrolidino[2″,1″-3′,2′]1,3-oxazino[5′,6′-4,5]benzo[e]1,3-oxazaperhydroine-4,10-dione] displayed a melting point of 197 to 198 °C.

In turn, `O=C1c2cc3c(cc2OCN1CCCN1CCOCC1)C(=O)N1CCCC1O3` (racemic) [Example 32, (R,S)-3-(3-morpholin-4-ylpropyl)-2H,6aH-pyrrolidino [2″,1″-3′,2′]1,3-oxazino[5′,6′-4,5]benzo[e]1,3-oxazaperhydroine-4,10-dione] had a melting point of 153 to 155 °C. With `O=C(c1ccc2c(c1)OC1CCCN1C2=O)N1CCCCC1` (racemic) [Example 5, (R,S)-6-(Piperidylcarbonyl)-3aH-benzo[e]pyrrolidino[2,1-b]1,3-oxazaperhydroin-9-one], the “EC2X: concentration” value in series [1] amounted to 2 µM. The “AMP: concentration of modulator that increases the amplitude of the fEPSP by 10%” value in series [2] turned out to be 10 µM. For the molecule `O=C1c2cc3c(cc2OCN1CCO)C(=O)N(CCO)CO3` [Example 59, 3,8-bis(2-hydroxyethyl)-2H,7H-1,3-oxazaperhydroino[5′,6′-4,5]benzo[e]1,3-oxazine-4,9-dione], the melting point is 237 to 238 °C. On the same count and under the same terms, next, `CCCN1COc2cc3c(cc2C1=O)OC1CCCN1C3=O` (racemic) [Example 24, (R,S)-3-propyl-2H,6aH-pyrrolidino[2″,1″-3′,2′]1,3-oxazino[5′,6′-4,5]benzo[e]1,3-oxazaperhydroine-4,10-dione]: 153 to 154 °C; `O=C1NCOc2cc3c(cc21)OC1CCCN1C3=O` (racemic) [Example 58, (R,S)-2H,3H,6aH-pyrrolidino[2″,1″-3′,2′]1,3-oxazino[5′,6′-4,5]benzo[e]1,3-oxazaperhydroine-4,10-dione]: 270 to 275 °C (dec.). Turning to `O=C1c2cc3c(cc2OC2CCCN12)C(=O)N1OCCC1O3` [Example 46, (R,S), (R,S)-2H,3H,3aH,9aH--1,2-oxazolidino[3,2-b]pyrrolidino[2″,1″-3′,2′](1,3-oxazino)[5′,6′-5,4]benzo[e]1,3-oxazaperhydroine-6,12-dione], the “EC2X: concentration” value in series [1] came to 2.4 µM. In addition, the “AMP: concentration of modulator that increases the amplitude of the fEPSP by 10%” value in series [2] worked out at 3 µM. Turning to `O=C1c2cc3c(cc2OCN1Cc1ccc2c(c1)OCO2)C(=O)N1CCCC1O3` (racemic) [Example 28, (R,S)-3-(2H-benzo[d]1,3-dioxolen-5-ylmethyl)-2H,6aH-pyrrolidino[2″,1″-3′,2′]1,3-oxazino[5′,6′-4,5]benzo[e]1,3-oxazaperhydroine-4,10-dione], in series [1], the “EC2X: concentration” value is 6 µM. Moreover, the “AMP: concentration of modulator that increases the amplitude of the fEPSP by 10%” value in series [2] came to 10 µM. In the case of `CC1CCN(C(=O)c2ccc3c(c2)OC2CCCN2C3=O)CC1` (racemic) [Example 18, (R,S)-6-[(4-methylpiperidyl)carbonyl]-3aH-benzo[e]pyrrolidino[2,1-b]1,3-oxazin-9-one], the “EC2X: concentration” value in series [1] was 4 µM. Also, the “AMP: concentration of modulator that increases the amplitude of the fEPSP by 10%” value in series [2] was found to be 100 µM. In the case of `O=C1c2cc3c(cc2OCN1CC(F)(F)F)C(=O)N1CCCC1O3` (racemic) [Example 29, (R,S)-3-(2,2,2-trifluoroethyl)-2H,6aH-pyrrolidino[2″,1″-3′,2′]1,3-oxazino[5′,6′-4,5]benzo[e]1,3-oxazaperhydroine-4,10-dione], the melting point fell in the range of 179 to 180 °C.

Molecule `O=C1c2cc3c(cc2OCC1CO)C(=O)N1CCCC1O3` [Example 20, (R,S),(R,S)-3-(hydroxymethyl)-6aH-chromano[7,6-e]pyrrolidino[2,1-b]1,3-oxazine-4,10-dione] came in with a melting point of 189 to 190 °C. The same measure, in the same setting: in the case of `CC(C)N1COc2cc3c(cc2C1=O)OC1CCCN1C3=O` (racemic) [Example 25, (R,S)-3-(methylethyl)-2H,6aH-pyrrolidino[2″,1″-3′,2′]1,3-oxazino[5′,6′-4,5]benzo[e]1,3-oxazaperhydroine-4,10-dione] it was 204 to 205 °C; in that of `O=C(CN1COc2cc3c(cc2C1=O)OC1CCCN1C3=O)N1CCCC1` (racemic) [Example 34, (R,S)-3-(2-oxo-2-pyrrolidinylethyl)-2H,6aH-pyrrolidin[2″,1″-3′,2′]1,3-oxazino[5′,6′-4,5]benzo[e]1,3-oxazaperhydroine-4,10-dione], 257 to 259 °C.

For `O=C1c2cc3c(cc2OCN1C1CCCC1)C(=O)N1CCCC1O3` (racemic) [Example 26, (R,S)-3-cyclopentyl-2H,6aH-pyrrolidino[2″,1″-3′,2′]1,3-oxazino[5′,6′-4,5]benzo[e]1,3-oxazaperhydroine-4,10-dione], the melting point lay in the range of 184 to 188 °C. On to `O=C1c2cc3c(cc2OC2CCCN12)OC1CCCN1C3=O` [Example 2, (R,S), (R,S)-3aH,6aH-pyrrolidino[2,1-b]pyrrolidino[2″,1″-3′,2′](1,3-oxazino)[6′,5′-2,1]benzo[4,5-e]1,3-oxazaperhydroine-10,12-dione], for which the “EC2X: concentration” value in series [1] stood at 2.6 µM. Further, the “AMP: concentration of modulator that increases the amplitude of the fEPSP by 10%” value in series [2] was over 10 µM. Take `CCN1COc2cc3c(cc2C1=O)OCN(CC)C3=O` [Example 21, 3,8-diethyl-2H,7H-1,3-oxazaperhydroino[5′,6′-4,5]benzo[e]1,3-oxazine-4,9-dione]: the melting point was in the range of 236 to 237 °C. In addition, the “EC2X: concentration” value in series [1] was found to be 1.8 µM. Besides, the “AMP: concentration of modulator that increases the amplitude of the fEPSP by 10%” value in series [2] came out at 10 µM. Regarding `O=C1c2cc3nc4n(c(=O)c3cc2OC2CCCN12)CCC4` (racemic) [Example 6, (R,S)-6a-hydro-3aH-pyrrolidino[2,1-b]pyrrolidino[2′,1′-2,3]quinazolino[7,6-e]1,3-oxazaperhydroine-6,12-dione], the “EC2X: concentration” value in series [1] came to 1.4 µM. Further, the “AMP: concentration of modulator that increases the amplitude of the fEPSP by 10%” value in series [2] came out at 100 µM.
